Measured values: article PMC11073428, “The activity of pyrazolo[4,3-e][1,2,4]triazine and pyrazolo[4,3-e]tetrazolo[1,5-b][1,2,4]triazine sulphonamide derivatives in monolayer and spheroid breast cancer cell cultures” (Journal of Enzyme Inhibition and Medicinal Chemistry, 2024)
Where two headings read alike, the source gives them in different places.

How the values were obtained:
[1] = test system: MCF-7 breast cancer cells; assay: MTT viability assay, MCF-7; conditions: for IC50: Homo sapiens, MCF7, 24 h, read-out: Cytotoxicity IC50 MCF-7
Procedure: (§7) Following 24-h incubation with tested compounds, the medium was discarded from the cell cultures. Then, into each well with cells was added 1 mL of PBS and 50 µL of MTT solution (5 mg per mL). Cells were incubated at 37 °C and 5% CO2 in humidified atmosphere for a defined time appropriate for each cell line. After incubation, the solution above the cells was removed and obtained purple formazan crystals were dissolved in 1 mL DMSO. The absorbance was read at OD = 570 nm on Evolution 201 Spectrophotometer (Thermo Scientific, Waltham, MA).

in vitro = conditions: human
[2] = test system: MDA-MB-231 breast cancer cells; assay: MTT viability assay, MDA-MB-231; conditions: for IC50: Homo sapiens, MDA-MB-231, 24 h, read-out: Cytotoxicity IC50 MDA-MB-231
Procedure: as §7

[3] = test system: MCF-7 breast cancer cells; design: method as in PMID 27488500; conditions: 24 h incubation; read-out: IC50 in MCF-7 (previous studies); cited from earlier work
[4] = test system: beclin-1 in MDA-MB-231 cells; assay: Anti-beclin-1 antibody flow cytometry, MDA-MB-231; assay type: cell-based, human; conditions: MDA-MB-231, 0.5 µM, 24 h
Procedure: (§1) The fixation and permeabilisation were performed as described above. Cells were resuspended in 100 µL of diluted primary antibody (1:100 in PBS, anti-beclin 1 antibody (2A4) #ab114071, Abcam, Cambridge, UK) and incubated 30 min in the dark at RT. The cells were washed three times by centrifugation in PBS. Then to each probe, 100 µL of diluted fluorochrome-labelled secondary antibody (1:100 in PBS; goat anti-mouse IgG H&L – Alexa Fluor 488 #ab150113, Abcam, Cambridge, UK) was added and incubated 30 min in dark at RT. Then, cells were rinsed with 2.5 mL PBS. In the last step, supernatant was discarded and cells were resuspended in 300 µL PBS and pipetted. The analysis was carried out by flow cytometry.

Bax in MCF-7 cells = assay: Anti-Bax antibody flow cytometry, MCF-7; assay type: cell-based, human; conditions: MCF-7, 24 h
Procedure: (§2) To evaluate the molecular mechanism of induction of apoptosis of tested compounds, the level of p53, NF-κB, mTOR, Bax, and beclin-1 was measured using appropriate antibody according to the manufacturer’s instruction. In brief, tryspinised cells were centrifuged, then supernatant was discarded, and cells were suspended in 4% FA (formaldehyde). Prepared samples were incubated 15 min at RT. Following incubation, the 2.5 mL PBS was added to each sample and centrifuged. Then, supernatant was discarded, and cells were resuspended in 90% ice-cold methanol to perform permeabilisation and left for 1 h in ice. To remove methanol, cells were rinsed with excess PBS by centrifugation. Following centrifugation, the supernatant was discarded. Then, cells were resuspended in 100 µL of appropriate diluted (1:100 in PBS) antibody conjugate (p53 (7F5) Rabbit mAb – Alexa Fluor 488 Conjugate #5429 Cell Signalling Technology, Danvers, MA; NF-κB p65 (D14E12) XP Rabbit mAb – Alexa Fluor 647 Conjugate #8801 Cell Signalling Technology, Danvers, MA; mTOR (7C10) Rabbit mAB – Alexa Fluor 647 #5048 Cell Signalling Technology, Danvers, MA; FITC Anti-Bax antibody (T22-A) #ab139543, Abcam, Cambridge, UK) and incubated 1 h in the dark at RT. Afterwards, cells were washed by centrifugation in 2 mL of incubation buffer. Finally, supernatant was removed and 300 µL PBS was added to each sample and pipetted. The analysis was performed by flow cytometry (BD FACSCanto II, Becton Dickinson Biosciences Systems, San Jose, CA) using FACSDiva software ver. 6.1.3.

Bax in MDA-MB-231 cells = assay: Anti-Bax antibody flow cytometry, MDA-MB-231; assay type: cell-based, human; conditions: MDA-MB-231, 24 h
Procedure: as §2

[5] = test system: MDA-MB-231 breast cancer cells; design: method as in PMID 27488500; conditions: 24 h incubation; read-out: IC50 in MDA-MB-231 (previous studies); cited from earlier work
[6] = test system: MDA-MB-231 breast cancer cells; assay: Apoptosis, annexin V-FITC/PI flow cytometry, MDA-MB-231; assay type: cell-based, human; conditions: 24 h; for early and late apoptotic cells: MDA-MB-231, 0.5 µM
Procedure: (§3) The analysis was performed using flow cytometry Apoptosis Detection Kit II (BD Biosciences, San Diego, CA) as described previously.

beclin-1 in MCF-7 cells = assay: Anti-beclin-1 antibody flow cytometry, MCF-7; assay type: cell-based, human; conditions: MCF-7, 0.5 µM, 24 h
Procedure: as §1

[7] = test system: MCF-10A normal breast cells; design: method as in PMID 32575817; conditions: 24 h incubation; read-out: IC50 in MCF-10A (previous studies); cited from earlier work
MDA-MB-231 spheroids = assay: 3D spheroid culture, MDA-MB-231; assay type: cell-based, human; conditions: 0.25 µM and 0.5 µM
Procedure: (§4) The 3D cell culture was carried out with 6-Well Bio-Assembler Kit in accordance with the manufacturer’s instructions (Greiner Bio-One GmbH, Frickenhausen, Germany). First, MCF-7 and MDA-MB-231 were cultured in 2D using procedure and supplied to 80% confluency and treated with nanoshuttle at concentration of 1 µL/10 000 cell and incubated overnight. Following incubation, the medium was removed, and the cells were detached by trypsin–EDTA solution and resuspended in DMEM. The cells were counted using Scepter 2.0 Handheld Automated Cell Counter (Merck, Darmstadt, Germany) and plated at the concentration 1 × 10^6 cells per well in six-well plate. Then, cells were gently tilted in the flask to evenly distribute the nanoparticle and incubated (37 °C, 5% CO2, 95–98% humidity) for 1 h with magnet on the top of the plate. The cells self-assemble to spheroids. The obtained 3D cell culture was incubated until analysis.
(§5) The visualisation of the morphological changes in 3D cell culture of MCF-7 and MDA-MB-231 was evaluated using microscope (Nikon Eclipse Ti, Tokyo, Japan).
(§6) The mean ± standard deviation (SD) for all data is presented. One-way and two-way analysis of variance (ANOVA) was conducted followed by Dunnett’s test. GraphPad 8.0.1 Prism software (GraphPad Software, San Diego, CA) was used for calculation. The analysis of spheroids area was carried out using ImageJ software from the NIH (Bethesda, MD).

MCF-7 spheroids = assay: 3D spheroid culture, MCF-7; assay type: cell-based, human; conditions: 0.25 µM and 0.5 µM
Procedure: as §4, §5, §6

[8] = test system: MCF-7 breast cancer cells; assay: Apoptosis, annexin V-FITC/PI flow cytometry, MCF-7; assay type: cell-based, human; conditions: 24 h; for early and late apoptotic cells: MCF-7, 0.5 µM
Procedure: as §3

[9] = ratio of cytotoxicity, 3a vs 2a, 3b vs 2b

Cc1nn(-c2ccc(S(=O)(=O)N[C@H](CO)Cc3ccccc3)cc2)c2nn3nnnc3nc12 [Compound 3a, (S)-N-(1-Hydroxy-3-phenylpropan-2-yl)-4-(7-methyl-5H-pyrazolo[4,3-e]tetrazolo[1,5-b][1,2,4]triazin-6-yl)benzenesulfonamide]
IC50 [1]: 0.35 ± 0.08 µM
times stronger than the corresponding sulphonyl derivative (2a or 2b), MCF-7 [1, 9]: 17 times
IC50 at 24 h (in vitro): 3.5 ± 0.18 µM
melting point: 172 to 176 °C
IC50 [2]: 0.71 ± 0.14 µM
times stronger than the corresponding sulphonyl derivative (2a or 2b), MDA-MB-231 [2, 9]: ~13 times

N.N.[Cl][Pt][Cl] [Cisplatin, cisplatin, reference compound]
IC50 [3]: 93 µM
cells with active beclin-1 [4]: 3.6 ± 0.7%
number of cells with active Bax (in words) (Bax in MCF-7 cells): at the control level
number of cells with active Bax (in words) (Bax in MDA-MB-231 cells): at the control level
IC50 [5]: 82 µM
early and late apoptotic cells [6]: 7.6 ± 0.6%
cells with active beclin-1 (beclin-1 in MCF-7 cells): 4.1 ± 0.5%
IC50 [7]: > 100 µM
effect on spheroid formation (in words) (MDA-MB-231 spheroids): slightly affected growth of spheroids
effect on spheroid formation (in words) (MCF-7 spheroids): slightly affected growth of spheroids
early and late apoptotic cells [8]: 7.1 ± 0.9%

Cc1nn(-c2ccc(S(=O)(=O)N[C@H](CO)Cc3ccccc3)cc2)c2nnc(S(C)(=O)=O)nc12 [Compound 2a, (S)-N-(1-Hydroxy-3-phenylpropan-2-yl)-4-(3-methyl-5-(methylsulfonyl)-1H-pyrazolo[4,3-e][1,2,4]triazin-1-yl)benzenesulfonamide]
IC50 [1]: 6 ± 0.38 µM
IC50 at 24 h (in vitro): > 10 µM
melting point: 130 to 134 °C
IC50 [2]: 9.2 ± 0.78 µM

Cc1nn(-c2ccc(S(=O)(=O)N[C@@H](CO)Cc3ccccc3)cc2)c2nnc(S(C)(=O)=O)nc12 [Compound 2b, (R)-N-(1-Hydroxy-3-phenylpropan-2-yl)-4-(3-methyl-5-(methylsulfonyl)-1H-pyrazolo[4,3-e][1,2,4]triazin-1-yl)benzenesulfonamide]
IC50 [1]: 5.5 ± 0.39 µM
IC50 at 24 h (in vitro): > 10 µM
apoptotic cells ([6]; MDA-MB-231, 0.25 µM): 5.7 ± 0.6%
early and late apoptotic cells [6]: 5.8 ± 1.8%
melting point: 124 to 128 °C
IC50 [2]: 7.8 ± 0.53 µM
effect on spheroid formation (in words) (MDA-MB-231 spheroids): slower formation of spheroids compared to untreated cells
effect on spheroid formation (in words) (MCF-7 spheroids): slower formation of spheroids compared to untreated cells
apoptotic cells ([8]; MCF-7, 0.25 µM): 9.8 ± 1.2%
early and late apoptotic cells [8]: 14.6 ± 1.7%
